≈ marks a conversion by molar mass, not a printed value.

From patent US12667101B2, “Picolinamide derivatives useful as agricultural fungicides” (GLOBACHEM NV, priority 2019, dated 2026) come the findings set out here.

The test system of the experiment is Zymoseptoria tritici. Briefly: Fungicidal activity screen in amended agar, 96 well plates. In kind it is cell-based. The note with it: 168 h, 1% potato dextrose agar amended to 20, 2, 0.2 and 0.02 ppm, 10,000 spores/mL, 18° C., assessed after 7 days, read-out: Zymoseptoria (EC50 ranking of fungal growth vs DMSO controls). Here is the method: Compounds were screened in 96 well plates with 10 compounds per plate. Each compound was screened using agar amended to 20, 2, 0.2 and 0.02 ppm of the test material. Proline at 50 and 10 ppm and 0.2% DMSO were used respectively as positive and negative controls. Each test concentration and standard were tested twice on a plate.
Compounds were screened against Zymoseptoria tritici. The agar used in the test was 1% potato dextrose agar. Sufficient spores were added to the appropriate agar to give 10,000 spores/mL agar.
A ×10 stock solution in 2% DMSO was produced for each dose i.e. 200, 20, 2 and 0.2 ppm, and 10 μl of this added to the appropriate wells on the plate. An equivalent amount of 2% DMSO and Proline stock at 500 and 100 ppm were added for the controls. To each well, 90 μl of the appropriate agar spore suspension was added to give the final well concentrations outlined in the first paragraph.
Plates were incubated at room temperature (18° C.) and assessed after 7 days.
The amount of fungal growth in each well was compared to the DMSO controls and scored according to the following key: • A—EC50<2 ppm • B—2≤EC50<20 • C—EC50≥20 • D—No activity detected at the highest dose tested • NT—Not tested
What is called EC50 is the concentration that produces a half-maximal response. Consider `CCCCCc1cc(Oc2ccc(F)cc2)nc2ccc(NC(=O)c3nccc(OC)c3O)cc12` [Example 21, N-(2-(4-fluorophenoxy)-4-pentylquinolin-6-yl)-3-hydroxy-4-methoxypicolinamide], for which the half-maximal effective concentration (EC50) was no less than 20 µg/mL. Take `COc1ccnc(C(=O)Nc2ccc3nc(OC(C)C)ccc3c2)c1OC(C)=O` [Example 47, 2-((2-isopropoxyquinolin-6-yl)carbamoyl)-4-methoxypyridin-3-yl acetate]: the concentration giving a half-maximal response (EC50) is less than 2 µg/mL.

With `COc1ccnc2c(=O)n(-c3ccc4nc(Sc5cccnc5Cl)ccc4c3)c(=S)oc12` [Example 45, 3-(2-((2-chloropyridin-3-yl)thio)quinolin-6-yl)-8-methoxy-2-thioxo-2,3-dihydro-4H-pyrido[2,3-e][1,3]oxazin-4-one], the 50% effective concentration (EC50) is no less than 20 µg/mL. As for `CCCCOc1ccc2cc(NC(=O)c3nccc(OC)c3O)ccc2n1` [Example 4, N-(2-butoxyquinolin-6-yl)-3-hydroxy-4-methoxypicolinamide], the figure is 2 to 20 µg/mL (≈ 5.44 to 54.4 µM); as for `COc1ccnc(C(=O)Nc2ccc3nc(N(C)c4ccccc4Cl)ccc3c2)c1O` [Example 23, N-(2((2-chlorophenyl)(methyl)amino)quinolin-6-yl)-3-hydroxy-4-methoxypicolinamide], less than 2 µg/mL; as for `COc1ccnc(C(=O)Nc2ccc3nc(Sc4ccc(F)cc4)ccc3c2)c1O` [Example 9, N-(2-((4-fluorophenyl)thio)quinolin-6-yl)-3-hydroxy-4-methoxypicolinamide], less than 2 µg/mL. For the compound `COc1ccnc(C(=O)Nc2ccc3nc(Sc4ccc(F)cc4)ccc3c2)c1OC(C)=O` [Example 29, 2-((2-((4-fluorophenyl)thio)quinolin-6-yl)carbamoyl)-4-methoxypyridin-3-yl acetate], the EC50 is no less than 20 µg/mL. As to `COc1ccnc(C(=O)Nc2ccc3nc(Oc4cccnc4Cl)ccc3c2)c1O` [Example 27, N-(2-((2-chloropyridin-3-yl)oxy)quinolin-6-yl)-3-hydroxy-4-methoxypicolinamide], the concentration for a half-maximal effect (EC50) is no less than 20 µg/mL.
